For series [1], the system named is Snu398 cells. Put plainly: Metabolomics analysis, Snu398 whole-cell extracts. The class given is cell-based, human. Conditions: Snu398 whole-cell lysates, 10 μM, 24 h.
The test system of series [2] is Snu398 cells. Put plainly: Compound cellular permeability assay, cytosolic extract. The class given is in vitro ADME, human. Conditions: Snu398 treated with 1 μM for 1.5 h, LC/MS/MS. Here is the method:
The medium was removed, cells were washed in phosphate-buffered saline (PBS), and cytosolic extracts were prepared by solubilization in Qproteome lysis buffer (Qiagen, Valencia, CA). […] The medium was removed, cells were washed in PBS and solubilized in 50:50 mixture of methanol and acetonitrile. Compound concentration in the cytosolic or whole-cell extract was determined by LC/MS/MS analysis. An Acquity UPLC system (Waters Inc., Milford, MA) was coupled to an API 4000 or API 5000 triple-quad mass spectrometer (Applied Biosystems). […] Compound concentration in cells was determined by counting the number of cells in sample wells and assuming 3 pL/cell volume.

In series [3] the test system is HepG2 cells. Put plainly: 13C NMR spectroscopy of glucose consumption and lactate production, HepG2. Format: cell-based, human. Conditions: HepG2, 10 μM. The procedure: After this pre-incubation, cells were washed in PBS and resuspended in 400 μL of glucose-free RPMI supplemented with 10% deuterium oxide, 11 mM D-(1,6-^13C2)glucose, and LDHA inhibitor or DMSO. An additional 600 μL of the same medium was gently added to top off the resuspended cells. Five mm NMR tubes with reduced sample depth (Shigemi Inc, Allison Park, PA, USA) were used to ensure that the cells remain inside the active volume of the receiver coil of the probe. […] . Prior to Fourier transformation, sensitivity and resolution were enhanced by applying an exponential line-broadening of 1 Hz over the first 32,000 data points and then zero filled to 256,000 data points. Spectra were analyzed using in-house data analysis software.

Series [4] concerns Snu398 cells. Put plainly: Oxygen consumption and extracellular acidification rates, Snu398 (Seahorse). As to conditions: Homo sapiens, SNU-398, 92 min, Snu398, 92 minutes after addition. Format: cell-based. The procedure: One hundred twenty thousand Snu398 or HepG2 human hepatocellular carcinoma cells per well were plated in XF24 PS or XF96 PET cell culture microplates (Seahorse Biosciences, North Billerica, MA, USA) and allowed to attach and proliferate for 18 h. Cells were equilibrated with DMEM lacking bicarbonate (Seahorse Biosciences) supplemented with glucose at 37°C for 1 h in an incubator lacking CO2. The rate of change of dissolved O2 (oxygen consumption rate, OCR) and rate of change of pH (extracellular acidification rate, ECAR) in medium immediately surrounding the cells was measured in the XF24 Analyzer (Seahorse Biosciences) per manufacturer’s instructions. Compound doses were injected into the wells at the indicated times. For dose response curves, the OCR and ECAR levels obtained in each well before compound addition were subtracted from the values obtained 92 minutes after compound addition.

For series [5], the system named is HepG2 cells. Put plainly: Cell proliferation and survival, HepG2 (trypan blue, Vi-Cell). Format: cell-based, human. Conditions: 4 to 8 days. Here is the method:
Sixty thousand Snu398 cells per well were plated in 6-well tissue culture plates in RPMI-1640 medium supplemented with 2.5% charcoal-stripped FBS (Life Technologies). Cells were allowed to attach overnight and then DMSO control or the indicated doses of LDHA inhibitor dissolved in DMSO were added directly to the wells. After 4 to 8 days of incubation in the indicated oxygen conditions, adherent cells were trypsinized, counted, and had their viability assessed by the trypan-blue exclusion method using the Vi-Cell XR Cell Viability Analyzer (Beckman Coulter, Brea, CA, USA). The same procedure was carried out for HepG2 cells, except non-charcoal-stripped FBS was used. For PARP cleavage analysis, both floating and adherent cells were collected after 24 h and the whole-cell extracts were prepared in radioimmunoprecipitation assay (RIPA) buffer (Sigma-Aldrich) supplemented with protease and phosphatase inhibitor cocktails (Sigma-Aldrich). Solubilized proteins were separated by SDS-PAGE, transferred onto nitrocellulose membrane, and detected with each specific antibody.

The next series can be described thus: PK analysis in rats. The class given is in vivo, male Sprague–Dawley rats. The procedure:
All studies were conducted after review by the Institutional Animal Care and Use Committee at GlaxoSmithKline (GSK) and in accordance with the GSK Policy on the Care, Welfare and Treatment of Laboratory Animals.

Series [6] in a line: human plasma protein binding by equilibrium dialysis. Format: in vitro ADME. A general note: In equilibrium dialysis only unbound substance equilibrates across the membrane.

Where two headings read alike, the source gives them in different places.

In the case of `COc1ncc(-c2ccc3c(Nc4cc(C(=O)O)cc(C5CCCC5)c4)c(S(=O)(=O)NC4CC4)cnc3c2)c(OC)n1` [Compound 2], the “increase of cytosolic glycolysis intermediates” value with Snu398 cells [1] is on record as ≤ 40 fold. Moreover, the “apparent intracellular concentration (cytosolic extract)” value with Snu398 cells [2] was 18 µM.
Consider `COc1ncc(-c2ccc3c(Nc4cc(Oc5cc(F)cc(F)c5)cc(C(=O)O)c4)c(S(=O)(=O)NC4CC4)cnc3c2)c(OC)n1` [Compound 1], for which the “(3-13C)lactate production” value with HepG2 cells [3] is reported as “significantly slowed down lactate production”. In addition, the EC50 with Snu398 cells [4] (read-out: ECAR change EC50) came to 600 ± 200 nM; with Snu398 cells [4] (read-out: OCR change EC50), 500 ± 300 nM. In addition, the HepG2 survival entry in the series on HepG2 cells [5] is “did not change HepG2 survival except at the highest dose”. The same compound returned a clearance in the series “PK analysis in rats” (male, Sprague-Dawley, rat, whole blood, IV infusion 0.25 mg/kg) of 69 mL/min/kg. Also, the blood compound level in the series “PK analysis in rats” (oral 50 mg/kg, detection limit 2.5 ng/mL) is listed as ≤ 2.5 ng/mL. This compound showed a fraction unbound in series [6] of 0.013.

Usually EC50 stands for the concentration that produces a half-maximal response. What is called clearance is a measure of how efficiently the substance is removed, as volume per time. A higher clearance goes with a high capacity for elimination. As usually defined, the fraction unbound is the share of the substance not bound to proteins or other matrix. High values mean weak binding, low ones extensive binding.

(Values after PMC4178217, “Quinoline 3-sulfonamides inhibit lactate dehydrogenase A and reverse aerobic glycolysis in cancer cells” (Cancer & Metabolism, 2013).)
